The subject of the assay is HCV 1b genotype. Put plainly: HCV replicon assay (HCV-neo replicon cells, wild-type). Format: cell-based, Hepatitis C virus. The following applies: Hepatitis C virus, HCV 1b genotype replicon. A digest of the protocol:
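HCV-neo replicon cells (wild-type) and replicon cells carrying NS5A resistance substitutions were treated with compounds; assay per O'Boyle et al. 2005, with luciferase-reporter read-out variants also used.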

[1] abbreviates: class symbol, read-out: EC50 Range against HCV 1b.

Each structure is given as a SMILES string. Like-named read-outs stand apart in the source and are kept apart here.

As for `CN(C)[C@@H](C(=O)N1CCCC1(C)C(=O)N1CCC[C@H]1C(=O)Nc1ccc(-c2cnc(-c3ccc(NC(=O)[C@@H]4CCCN4C(=O)C4(C)CCCN4C(=O)[C@@H](c4ccccc4)N(C)C)cc3)o2)cc1)c1ccccc1` (stereo partly drawn) [Example D-41, (2S,2′S)-N,N′-(1,3-oxazole-2,5-diyldi-4,1-phenylene)bis(1-((1-((2R)-2-(dimethylamino)-2-phenylacetyl)-2-methyl-2-pyrrolidinyl)carbonyl)-2-pyrrolidinecarboxamide)], the EC50 under setting [1] fell in the range of 100 to 999 nM. `CC(=O)N1CCC[C@H]1C(=O)Nc1ccc(-c2sc(C)nc2-c2ccc(NC(=O)[C@@H]3CCCN3C(=O)Cc3ccccc3)cc2)cc1` [Example D-42, (2S)-1-acetyl-N-(4-(2-methyl-4-(4-((((2S)-1-(phenylacetyl)-2-pyrrolidinyl)carbonyl)amino)phenyl)-1,3-thiazol-5-yl)phenyl)-2-pyrrolidinecarboxamide]: under setting [1], the EC50 was 1000 to 10000 nM. `CC(=O)N1CCC[C@H]1C(=O)Nc1ccc(-c2nc(C)sc2-c2ccc(NC(=O)[C@@H]3CCCN3C(C)=O)cc2)cc1` [Example D-43, (2S,2′S)-N,N′-((2-methyl-1,3-thiazole-4,5-diyl)di-4,1-phenylene)bis(1-acetyl-2-pyrrolidinecarboxamide)]: the EC50 under setting [1] is 100 to 999 nM. Still for that read-out and setting: for `Cc1nc(-c2ccc(NC(=O)[C@@H]3CCCN3C(=O)Cc3ccccc3)cc2)c(-c2ccc(NC(=O)[C@@H]3CCCN3C(=O)Cc3ccccc3)cc2)s1` [Example D-44, (2S,2′S)-N,N′-((2-methyl-1,3-thiazole-4,5-diyl)di-4,1-phenylene)bis(1-(phenylacetyl)-2-pyrrolidinecarboxamide)] the value was 4.57 to 99 nM; for `CC(=O)N1CCC[C@H]1C(=O)Nc1ccc(-c2nc(-c3ccc(NC(=O)[C@@H]4CCCN4C(=O)Cc4ccccc4)cc3)cs2)cc1` [Example D-45, (2S)-1-acetyl-N-(4-(4-(4-((((2S)-1-(phenylacetyl)-2-pyrrolidinyl)carbonyl)amino)phenyl)-1,3-thiazol-2-yl)phenyl)-2-pyrrolidinecarboxamide], 100 to 999 nM; for `CC(=O)N1CCC[C@H]1C(=O)Nc1ccc(-c2nc(-c3ccc(NC(=O)C4CC(=O)N(CCc5cccs5)C4)cc3)cs2)cc1` (stereo partly drawn) [Example D-46, (2S)-1-acetyl-N-[4-[4-[4-[[[5-oxo-1-[2-(2-thienyl)ethyl]-3-pyrrolidinyl]carbonyl]amino]phenyl]-2-thiazolyl]phenyl]-2-pyrrolidinecarboxamide], 1000 to 10000 nM.

On to `CC(=O)N1CCC[C@H]1C(=O)Nc1ccc(-c2nc(-c3ccc(NC(=O)[C@@H]4C=CCN4C(=O)c4cccs4)cc3)cs2)cc1` [Example D-47, (2S)-N-[4-[2-[4-[[[(2S)-1-acetyl-2-pyrrolidinyl]carbonyl]amino]phenyl]-4-thiazolyl]phenyl]-2,5-dihydro-1-(2-thienylcarbonyl)-1H-pyrrole-2-carboxamide], for which the EC50 under setting [1] fell in the range of 1000 to 10000 nM. Still for that read-out and setting: the same measure for `CC(=O)N1CCC[C@H]1C(=O)Nc1ccc(-c2nc(-c3ccc(NC(=O)[C@@H]4C=CCN4C(=O)Cc4cccs4)cc3)cs2)cc1` [Example D-48, (2S)-N-[4-[2-[4-[[[(2S)-1-acetyl-2-pyrrolidinyl]carbonyl]amino]phenyl]-4-thiazolyl]phenyl]-2,5-dihydro-1-(2-thienylacetyl)-1H-pyrrole-2-carboxamide]: 100 to 999 nM; for `CC(=O)N1CCC[C@H]1C(=O)Nc1ccc(-c2nc(-c3ccc(NC(=O)[C@@H]4C=CCN4C(=O)Cc4ccccc4)cc3)cs2)cc1` [Example D-49, (2S)-N-[4-[2-[4-[[[(2S)-1-acetyl-2-pyrrolidinyl]carbonyl]amino]phenyl]-4-thiazolyl]phenyl]-2,5-dihydro-1-(phenylacetyl)-1H-pyrrole-2-carboxamide]: 1000 to 10000 nM; for `CC(=O)N1CCC[C@H]1C(=O)Nc1ccc(-c2nc(-c3ccc(NC(=O)[C@@H]4C=CCN4C(=O)c4ccno4)cc3)cs2)cc1` [Example D-50, (2S)-N-[4-[2-[4-[[[(2S)-1-acetyl-2-pyrrolidinyl]carbonyl]amino]phenyl]-4-thiazolyl]phenyl]-2,5-dihydro-1-(5-isoxazolylcarbonyl)-1H-pyrrole-2-carboxamide]: 100 to 999 nM. For `CC(=O)N1CCC[C@H]1C(=O)Nc1ccc(-c2nc(-c3ccc(NC(=O)[C@@H]4C=CCN4C(=O)[C@H]4CCCO4)cc3)cs2)cc1` [Example D-51, (2S)-N-[4-[2-[4-[[[(2S)-1-acetyl-2-pyrrolidinyl]carbonyl]amino]phenyl]-4-thiazolyl]phenyl]-2,5-dihydro-1-[[(2R)-tetrahydro-2-furanyl]carbonyl]-1H-pyrrole-2-carboxamide], the EC50 under setting [1] is 1000 to 10000 nM and the concentration for a half-maximal effect (EC50) (read-out: EC50 1b) is 3430 nM. Turning to `CC(=O)N1CCC[C@H]1C(=O)Nc1ccc(-c2nc(-c3ccc(NC(=O)[C@@H]4C=CCN4C(=O)[C@@H]4CCCO4)cc3)cs2)cc1` [Example D-52, (2S)-N-[4-[2-[4-[[[(2S)-1-acetyl-2-pyrrolidinyl]carbonyl]amino]phenyl]-4-thiazolyl]phenyl]-2,5-dihydro-1-[[(2S)-tetrahydro-2-furanyl]carbonyl]-1H-pyrrole-2-carboxamide], the EC50 under setting [1] lay in the range of 1000 to 10000 nM.

On to `CC(=O)N1CCC[C@H]1C(=O)Nc1ccc(-c2nc(-c3ccc(NC(=O)[C@@H]4C=CCN4C(=O)c4ccccc4)cc3)cs2)cc1` [Example D-53, (2S)-N-[4-[2-[4-[[[(2S)-1-acetyl-2-pyrrolidinyl]carbonyl]amino]phenyl]-4-thiazolyl]phenyl]-1-benzoyl-2,5-dihydro-1H-pyrrole-2-carboxamide], for which the EC50 under setting [1] lay in the range of 1000 to 10000 nM and the EC50 (read-out: EC50 1b) worked out at 1130 nM. The corresponding values for `CC(=O)N1CCC[C@H]1C(=O)Nc1ccc(-c2nnc(-c3ccc(NC(=O)[C@@H]4CCCN4C(=O)Cc4ccccc4)cc3)o2)cc1` [Example D-54, (2S)-1-acetyl-N-[4-[5-[4-[[[(2S)-1-(phenylacetyl)-2-pyrrolidinyl]carbonyl]amino]phenyl]-1,3,4-oxadiazol-2-yl]phenyl]-2-pyrrolidinecarboxamide] are 1000 to 10000 nM and 4760 nM. As to `CC(=O)N1CCC[C@H]1C(=O)Nc1ccc(-c2nnc(-c3ccc(NC(=O)[C@@H]4CCCN4C(C)=O)cc3)o2)cc1` [Example D-55, (2S,2′S)-N,N′-(1,3,4-oxadiazole-2,5-diyldi-4,1-phenylene)bis[1-acetyl-2-pyrrolidinecarboxamide]], the EC50 is, setting by setting: under setting [1], 1000 to 10000 nM; (read-out: EC50 1b) 10000 nM.

In the case of `O=C(Nc1ccc(-c2nnc(-c3ccc(NC(=O)[C@@H]4CCCN4C(=O)CC4CC4)cc3)o2)cc1)[C@@H]1CCCN1C(=O)CC1CC1` [Example D-57, (2S,2′S)-N,N′-(1,3,4-oxadiazole-2,5-diyldi-4,1-phenylene)bis[1-(cyclopropylacetyl)-2-pyrrolidinecarboxamide]], the EC50 is 1000 to 10000 nM under setting [1] and 1950 nM (read-out: EC50 1b).

As for `O=C(Nc1ccc(-c2nnc(-c3ccc(NC(=O)[C@@H]4CCCN4C(=O)C4CC4)cc3)o2)cc1)[C@@H]1CCCN1C(=O)C1CC1` [Example D-58, (2S,2′S)-N,N′-(1,3,4-oxadiazole-2,5-diyldi-4,1-phenylene)bis[1-(cyclopropylcarbonyl)-2-pyrrolidinecarboxamide]], the EC50 is 1000 to 10000 nM under setting [1] and 2210 nM (read-out: EC50 1b). For the molecule `O=C(Nc1ccc(-c2nnc(-c3ccc(NC(=O)[C@@H]4CCCN4C(=O)C4CCC4)cc3)o2)cc1)[C@@H]1CCCN1C(=O)C1CCC1` [Example D-59, (2S,2′S)-N,N′-(1,3,4-oxadiazole-2,5-diyldi-4,1-phenylene)bis[1-(cyclobutylcarbonyl)-2-pyrrolidinecarboxamide]], the EC50 reads like this: under setting [1], 1000 to 10000 nM; (read-out: EC50 1b) 5450 nM. Taken in the same sequence, the figures for `O=C(Nc1ccc(-c2nnc(-c3ccc(NC(=O)[C@@H]4CCCN4C(=O)[C@@H]4CCCO4)cc3)o2)cc1)[C@@H]1CCCN1C(=O)C1CCCO1` (stereo partly drawn) [Example D-60, (S,2S,2′S)-N,N′-(4,4′-(1,3,4-oxadiazole-2,5-diyl)bis(4,1-phenylene))bis(1-((S)-tetrahydrofuran-2-carbonyl)pyrrolidine-2-carboxamide)] were 100 to 999 nM and 650 nM.

Consider `O=C(Nc1ccc(-c2nnc(-c3ccc(NC(=O)[C@@H]4CCCN4C(=O)Cc4cccs4)cc3)o2)cc1)[C@@H]1CCCN1C(=O)Cc1cccs1` [Example D-61, (2S,2′S)-N,N′-(4,4′-(1,3,4-oxadiazole-2,5-diyl)bis(4,1-phenylene))bis(1-(2-(thiophen-2-yl)acetyl)pyrrolidine-2-carboxamide)], for which the EC50 was 100 to 999 nM under setting [1] and 327 nM (read-out: EC50 1b).

Consider `CC(=O)N1CCC[C@H]1C(=O)Nc1ccc(-c2nnc(-c3ccc(NC(=O)[C@@H]4CCCN4C(=O)Cc4cccs4)cc3)o2)cc1` [Example D-62, (2S)-1-acetyl-N-[4-[5-[4-[[[(2S)-1-(2-thienylacetyl)-2-pyrrolidinyl]carbonyl]amino]phenyl]-1,3,4-oxadiazol-2-yl]phenyl]-2-pyrrolidinecarboxamide], for which the EC50 is 1000 to 10000 nM under setting [1] and 3470 nM (read-out: EC50 1b).

For `O=C(Nc1ccc(-c2nnc(-c3ccc(NC(=O)[C@@H]4CCCN4C(=O)Cc4cccnc4)cc3)o2)cc1)[C@@H]1CCCN1C(=O)Cc1cccnc1` [Example D-63, (2S,2′S)-N,N′-(1,3,4-oxadiazole-2,5-diyldi-4,1-phenylene)bis[1-(3-pyridinylacetyl)-2-pyrrolidinecarboxamide]], the EC50 was 1000 to 10000 nM under setting [1] and 1940 nM (read-out: EC50 1b).

Regarding `CC(=O)N1CCC[C@H]1C(=O)Nc1ccc(-c2nnc(-c3ccc(NC(=O)[C@@H]4CCCN4C(=O)Cc4cccnc4)cc3)o2)cc1` [Example D-64, (2S)-1-acetyl-N-[4-[5-[4-[[[(2S)-1-(3-pyridinylacetyl)-2-pyrrolidinyl]carbonyl]amino]phenyl]-1,3,4-oxadiazol-2-yl]phenyl]-2-pyrrolidinecarboxamide], the EC50 under setting [1] fell in the range of 1000 to 10000 nM and the concentration for a half-maximal effect (EC50) (read-out: EC50 1b) is 6570 nM. Take `Cn1nc(-c2ccc(NC(=O)[C@@H]3CCCN3C(=O)Cc3ccccc3)cc2)cc1-c1ccc(NC(=O)[C@@H]2CCCN2C(=O)Cc2ccccc2)cc1` [FY-1, (2S,2′S)-N,N′-((1-methyl-1H-pyrazole-3,5-diyl)di-4,1-phenylene)bis(1-(phenylacetyl)-2-pyrrolidinecarboxamide)]: the half-maximal effective concentration (EC50) under setting [1] was 100 to 999 nM.

Source of the values: patent US8735398B2 (Bristol-Myers Squibb Company, priority 2009, dated 2014).
